Measured values: article PMC11322164 (Scientific Reports, 2024)

Tested on: PAO1
Experiment: Salt sensitivity assay
Assay type: cell-based, P. aeruginosa

Polymyxin B was tested, and the MBC (CaCl2 (2.5 mM)) was 2 µM, the MIC (CaCl2 (2.5 mM)) was 2 µM and the MBC (FeCl3 (4 μM)) was 1 µM. For the same substance, the MIC (FeCl3 (4 μM)) was 1 µM, the MBC (KCl (4.5 mM)) was 1 µM and the MIC (KCl (4.5 mM)) was 1 µM. For the same substance, the MBC (MgCl2 (1 mM)) was 1 µM, the MIC (MgCl2 (1 mM)) was 1 µM and the MBC (NH4Cl (6 μM)) was 1 µM. It also gave an MIC (NH4Cl (6 μM)) of 1 µM, an MBC (NaCl (150 mM)) of 0.5 µM and an MIC (NaCl (150 mM)) of 0.5 µM. For the same substance, the MBC (ZnCl2 (8 mM)) was 1 µM and the MIC (ZnCl2 (8 mM)) was 1 µM.
